Experimental data: article PMC8548483, “Bioactive compounds from an endophytic fungi Nigrospora aurantiaca” (Botanical Studies, 2021)
Entries after “also recorded” stand apart in the source; their conditions may differ.

What was measured:
Type in all cases: cell-based, murine
microglial BV-2 cells = assay: Cell viability (MTT test) in BV-2 cells; conditions: 10 µM
Experimental: (§1) The murine BV-2 microglial cell line cultured followed the procedure of our previous reports (Hsiao et al. [2020]). In summary, BV-2 cells were cultured with DMEM containing Fetal Bovine Serum (FBS), streptomycin/penicillin, Lglutamine and HEPES at 37 °C, humidified 5% CO2. Prior to the study, BV-2 cells were cultured in FBS media (5%), pretreated with carrier media or various concentrations of compounds for 15 min, and eventually collected after 24 h of stimulation with LPS (150 ng/mL).
(§2) As in our previous report, cellular viability was assessed using MTT test where BV-2 cells, along with other compounds were treated for 24 h (Hsiao et al. [2020]).

[1] = Cell viability (MTT test) in BV-2 cells; conditions: mouse, BV-2 microglial cells, 24 h, MTT, mean ± SD (n = 3), read-out: Cell viabillity (%)
Experimental: as §1, §2

[2] = test system: NO production in LPS-activated microglial BV-2 cells; assay: Inhibition of NO production in LPS-activated microglial BV-2 cells (Griess method); conditions: for Inhibitory effect on NO production (in words): LPS-activated BV-2 cells; for IC50: Mus musculus, LPS (150 ng/mL)-stimulated BV-2 cells, 15 min pretreatment, 24 h, mean ± SD (n = 3), read-out: IC50 (inhibitory effect on NO production)
Experimental: as §1
The level of nitric oxide (NO) metabolites from the production of activated BV-2 cells was measured with reference to the Griess method (Wang et al. [2018]).

Row | IC50 [2] | Compound | Cytotoxicity against microglial BV-2 cells (in words) (microglial BV-2 cells) | viability at 24 h, 10 µM [1] | Inhibitory effect on NO production (in words) [2]
1 | 7.2 ± 1.4 µM | CC(C)[C@@H](C)/C=C/[C@@H](C)[C@H]1CC[C@H]2C3=CC=C4C[C@@H](O)CC[C@]4(C)[C@H]3CC[C@]12C [Compound 6, ergosterol] | no significant cytotoxic effect | 90.8 ± 6.7% | potently inhibitory effects; also recorded: potential inhibitory activities; also recorded: considerable inhibitory effect
2 | 2.3 ± 0.3 µM | COC1=CC(=O)c2c(O)c3c(c(O)c2C1=O)C[C@](C)(O)[C@H](O)[C@H]3O [Compound 3, bostrycin] | significant cytotoxicity | 10.7 ± 0.8% | potently inhibitory effects; also recorded: potential inhibitory activities
3 | 2.5 ± 0.5 µM | COC1=CC(=O)c2c(O)c3c(c(O)c2C1=O)C[C@](C)(O)[C@H](O)C3 [Compound 4, deoxybostrycin] | significant cytotoxicity | 11.3 ± 1.3% | potently inhibitory effects; also recorded: potential inhibitory activities
4 | 6 ± 0.3 µM | COc1cc(/C=C/C(=O)CC(=O)/C=C/c2ccc(O)c(OC)c2)ccc1O [Curcumin, curcumin, reference compound] |  |  | 
5 | 30.1 ± 3 µM | Cc1cc(O)c2c(c1)O[C@@]1(C)OC[C@H](C)C1C2 (stereo partly shown) [Compound 2, xyloketal K] | no cytotoxic activity | 98.3 ± 7.6% | weak inhibitory effects; also recorded: weak inhibitory activities
6 | 32.1 ± 6.7 µM | COc1cc(O)c2c(c1O)[C@@H](O)[C@@H]1C[C@](C)(O)[C@H](O)C[C@@H]1C2=O [Compound 5, xylanthraquinone] | no cytotoxic activity | 103 ± 6.9% | weak inhibitory effects; also recorded: weak inhibitory activities
7 | 32.2 ± 3.3 µM | C/C=C/C=C(\CO)C(/C=C/C)CO (stereo not shown) [Compound 1, nigaurdiol] | no cytotoxic activity | 103 ± 8.8% | weak inhibitory effects; also recorded: weak inhibitory activities
